Measured values taken from patent publication US20230143604A1, “QW DOSING OF GIP RECEPTOR AGONIST PEPTIDE COMPOUNDS AND USES THEREOF” (TAKEDA PHARMACEUTICAL COMPANY LIMITED, priority 2020, published 2023).
Starred links: 1 amine or outer side, 2 acyl side, 3 side chain; linkers in the order of their positions; H or OH if unused. Non-standard residues stand in square brackets, D forms with d. Residues, ends and D or L forms follow the SMILES beside them. Groups on a side chain read outwards from the residue. *: point of attachment. C18 diacid = O=C(O)CCCCCCCCCCCCCCCCC(=O)*; γGlu = O=C(O)[C@H](CCC(=O)[*:2])N[*:1]; AEEA = NCCOCCOCC(=O)O; Aib = CC(C)(N)C(=O)O

Assay: physchem
Procedure, shortened: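 Solubility at pH 7.4 determined by stepwise addition of 200 mM phosphate buffer in 100 μL increments to 3 mg peptide, mixing briefly each time, until no insoluble material remained, then measured by liquid chromatography.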

Structure (SMILES)	solubility (pH 7.4) [mg/mL]	solubility (pH 7.4, aqueous buffer) [mg/mL]
CC[C@H](C)[C@H](NC(=O)[C@H](Cc1ccccc1)NC(=O)[C@@H](NC(=O)CNC(=O)[C@H](CCC(=O)O)NC(=O)C(C)(C)NC(=O)[C@@H](N)Cc1ccc(O)cc1)[C@@H](C)O)C(=O)N[C@@H](CO)C(=O)N[C@@H](CC(=O)O)C(=O)N[C@@H](Cc1ccc(O)cc1)C(=O)N[C@@H](CO)C(=O)N[C@H](C(=O)NC(C)(C)C(=O)N[C@@H](CCCCNC(=O)CNC(=O)CNC(=O)CNC(=O)CNC(=O)CNC(=O)CCCCCCCCCCCCCCCCC(=O)O)C(=O)N[C@@H](CC(=O)O)C(=O)N[C@@H](CCCNC(=N)N)C(=O)NC(C)(C)C(=O)N[C@@H](C)C(=O)N[C@@H](CCC(N)=O)C(=O)N[C@@H](CCCNC(=N)N)C(=O)N[C@@H](CC(=O)O)C(=O)N[C@@H](Cc1ccccc1)C(=O)N[C@H](C(=O)N[C@@H](CCC(=O)O)C(=O)N[C@@H](Cc1c[nH]c2ccccc12)C(=O)N[C@@H](CC(C)C)C(=O)N[C@@H](CC(C)C)C(=O)N[C@@H](C)C(=O)N[C@@H](CCC(N)=O)C(=O)N[C@@H](CCCNC(=N)N)C(=O)NCC(=O)O)C(C)C)[C@@H](C)CC [Compound 147]	≥ 15	
CC[C@H](C)[C@H](NC(=O)[C@H](Cc1ccccc1)NC(=O)[C@@H](NC(=O)CNC(=O)[C@H](CCC(=O)O)NC(=O)C(C)(C)NC(=O)[C@@H](N)Cc1ccc(O)cc1)[C@@H](C)O)C(=O)N[C@@H](CO)C(=O)N[C@@H](CC(=O)O)C(=O)N[C@@H](Cc1ccc(O)cc1)C(=O)N[C@@H](CO)C(=O)N[C@H](C(=O)NC(C)(C)C(=O)N[C@@H](CCCCNC(=O)CNC(=O)CNC(=O)CNC(=O)CNC(=O)CNC(=O)CCCCCCCCCCCCCCCCC(=O)O)C(=O)N[C@@H](CC(=O)O)C(=O)N[C@@H](CO)C(=O)N[C@@H](C)C(=O)N[C@@H](C)C(=O)N[C@@H](CCC(N)=O)C(=O)NC(C)(C)C(=O)N[C@@H](CC(=O)O)C(=O)N[C@@H](Cc1ccccc1)C(=O)N[C@H](C(=O)N[C@@H](CC(N)=O)C(=O)N[C@@H](Cc1c[nH]c2ccccc12)C(=O)N[C@@H](CC(C)C)C(=O)N[C@@H](CC(C)C)C(=O)N[C@@H](C)C(=O)N[C@@H](CCC(N)=O)C(=O)N[C@@H](CCCNC(=N)N)C(=O)NCC(=O)O)C(C)C)[C@@H](C)CC [Compound 151]	≥ 15	≥ 30
CC[C@H](C)[C@H](NC(=O)[C@H](CCCCN)NC(=O)[C@H](CC(=O)O)NC(=O)[C@H](CC(C)C)NC(=O)[C@H](C)NC(=O)[C@@H](NC(=O)[C@H](CO)NC(=O)[C@H](Cc1ccc(O)cc1)NC(=O)[C@H](CC(=O)O)NC(=O)[C@H](CO)NC(=O)[C@@H](NC(=O)[C@H](Cc1ccccc1)NC(=O)[C@@H](NC(=O)CNC(=O)[C@H](CCC(=O)O)NC(=O)C(C)(C)NC(=O)[C@@H](N)Cc1ccc(O)cc1)[C@@H](C)O)[C@@H](C)CC)[C@@H](C)CC)C(=O)N[C@@H](C)C(=O)N[C@@H](CCC(N)=O)C(=O)NC(C)(C)C(=O)N[C@@H](CCCCNC(=O)COCCOCCNC(=O)COCCOCCNC(=O)CC[C@H](NC(=O)CC[C@H](NC(=O)CCCCCCCCCCCCCCCCC(=O)O)C(=O)O)C(=O)O)C(=O)N[C@@H](Cc1ccccc1)C(=O)N[C@H](C(=O)N[C@@H](CCC(=O)O)C(=O)N[C@@H](Cc1c[nH]c2ccccc12)C(=O)N[C@@H](CC(C)C)C(=O)N[C@@H](CC(C)C)C(=O)N[C@@H](C)C(=O)N[C@@H](CCC(N)=O)C(=O)N[C@@H](CCCNC(=N)N)C(=O)NCC(=O)O)C(C)C [Compound 153] (H-Y[Aib]EGTFISDYSIALDKIAQ[Aib]K([AEEA-AEEA-γGlu-γGlu-C18 diacid])FVEWLLAQRG-OH)	≥ 15	≥ 30
CC[C@H](C)[C@H](NC(=O)[C@H](CO)NC(=O)[C@H](Cc1ccc(O)cc1)NC(=O)[C@H](CC(=O)O)NC(=O)[C@H](CO)NC(=O)[C@@H](NC(=O)[C@H](Cc1ccccc1)NC(=O)[C@@H](NC(=O)CNC(=O)[C@H](CCC(=O)O)NC(=O)C(C)(C)NC(=O)[C@@H](N)Cc1ccc(O)cc1)[C@@H](C)O)[C@@H](C)CC)C(=O)N[C@@H](C)C(=O)N[C@@H](CC(C)C)C(=O)N[C@@H](CC(=O)O)C(=O)N[C@@H](CCCCN)C(=O)N[C@@H](C)C(=O)N[C@@H](C)C(=O)N[C@@H](CCC(N)=O)C(=O)NC(C)(C)C(=O)N[C@@H](CCCCNC(=O)COCCOCCNC(=O)COCCOCCNC(=O)CC[C@H](NC(=O)CC[C@H](NC(=O)CCCCCCCCCCCCCCCCC(=O)O)C(=O)O)C(=O)O)C(=O)N[C@@H](Cc1ccccc1)C(=O)N[C@H](C(=O)N[C@@H](CCC(=O)O)C(=O)N[C@@H](Cc1c[nH]c2ccccc12)C(=O)N[C@@H](CC(C)C)C(=O)N[C@@H](CC(C)C)C(=O)N[C@@H](C)C(=O)N[C@@H](CCC(N)=O)C(=O)N[C@@H](CCCNC(=N)N)C(=O)NCC(=O)O)C(C)C [Compound 154] (H-Y[Aib]EGTFISDYSIALDKAAQ[Aib]K([AEEA-AEEA-γGlu-γGlu-C18 diacid])FVEWLLAQRG-OH)	≥ 15	≥ 30
CC[C@H](C)[C@H](NC(=O)[C@H](CO)NC(=O)[C@H](Cc1ccc(O)cc1)NC(=O)[C@H](CC(=O)O)NC(=O)[C@H](CO)NC(=O)[C@@H](NC(=O)[C@H](Cc1ccccc1)NC(=O)[C@@H](NC(=O)CNC(=O)[C@H](CCC(=O)O)NC(=O)C(C)(C)NC(=O)[C@@H](N)Cc1ccc(O)cc1)[C@@H](C)O)[C@@H](C)CC)C(=O)N[C@@H](C)C(=O)N[C@@H](CC(C)C)C(=O)N[C@@H](CC(=O)O)C(=O)N[C@@H](CCCCN)C(=O)NC(C)(C)C(=O)N[C@@H](C)C(=O)N[C@@H](CCC(N)=O)C(=O)N[C@@H](C)C(=O)N[C@@H](CCCCNC(=O)COCCOCCNC(=O)COCCOCCNC(=O)CC[C@H](NC(=O)CC[C@H](NC(=O)CCCCCCCCCCCCCCCCC(=O)O)C(=O)O)C(=O)O)C(=O)N[C@@H](Cc1ccccc1)C(=O)N[C@H](C(=O)N[C@@H](CCC(=O)O)C(=O)N[C@@H](Cc1c[nH]c2ccccc12)C(=O)N[C@@H](CC(C)C)C(=O)N[C@@H](CC(C)C)C(=O)N[C@@H](C)C(=O)N[C@@H](CCC(N)=O)C(=O)N[C@@H](CCCNC(=N)N)C(=O)NCC(=O)O)C(C)C [Compound 155] (H-Y[Aib]EGTFISDYSIALDK[Aib]AQAK([AEEA-AEEA-γGlu-γGlu-C18 diacid])FVEWLLAQRG-OH)	≥ 15	≥ 30
CC[C@H](C)[C@H](NC(=O)[C@H](CO)NC(=O)[C@H](Cc1ccc(O)cc1)NC(=O)[C@H](CC(=O)O)NC(=O)[C@H](CO)NC(=O)[C@@H](NC(=O)[C@H](Cc1ccccc1)NC(=O)[C@@H](NC(=O)CNC(=O)[C@H](CCC(=O)O)NC(=O)C(C)(C)NC(=O)[C@@H](N)Cc1ccc(O)cc1)[C@@H](C)O)[C@@H](C)CC)C(=O)N[C@@H](C)C(=O)N[C@@H](CC(C)C)C(=O)N[C@@H](CC(=O)O)C(=O)N[C@@H](CCCCN)C(=O)NC(C)(C)C(=O)N[C@@H](C)C(=O)N[C@@H](CCC(N)=O)C(=O)N[C@@H](CCCNC(=N)N)C(=O)N[C@@H](CCCCNC(=O)COCCOCCNC(=O)COCCOCCNC(=O)CC[C@H](NC(=O)CC[C@H](NC(=O)CCCCCCCCCCCCCCCCC(=O)O)C(=O)O)C(=O)O)C(=O)N[C@@H](Cc1ccccc1)C(=O)N[C@H](C(=O)N[C@@H](CCC(=O)O)C(=O)N[C@@H](Cc1c[nH]c2ccccc12)C(=O)N[C@@H](CC(C)C)C(=O)N[C@@H](CC(C)C)C(=O)N[C@@H](C)C(=O)N[C@@H](CCC(N)=O)C(=O)N[C@@H](CCCNC(=N)N)C(=O)NCC(=O)O)C(C)C [Compound 156] (H-Y[Aib]EGTFISDYSIALDK[Aib]AQRK([AEEA-AEEA-γGlu-γGlu-C18 diacid])FVEWLLAQRG-OH)	≥ 15	≥ 30
CC[C@H](C)[C@H](NC(=O)[C@H](CO)NC(=O)[C@H](Cc1ccc(O)cc1)NC(=O)[C@H](CC(=O)O)NC(=O)[C@H](CO)NC(=O)[C@@H](NC(=O)[C@H](Cc1ccccc1)NC(=O)[C@@H](NC(=O)CNC(=O)[C@H](CCC(=O)O)NC(=O)C(C)(C)NC(=O)[C@@H](N)Cc1ccc(O)cc1)[C@@H](C)O)[C@@H](C)CC)C(=O)N[C@@H](C)C(=O)NC(C)(C)C(=O)N[C@@H](CC(=O)O)C(=O)N[C@@H](CCCCN)C(=O)N[C@@H](C)C(=O)N[C@@H](C)C(=O)N[C@@H](CCC(N)=O)C(=O)N[C@@H](CCC(N)=O)C(=O)N[C@@H](CCCCNC(=O)COCCOCCNC(=O)COCCOCCNC(=O)CC[C@H](NC(=O)CC[C@H](NC(=O)CCCCCCCCCCCCCCCCC(=O)O)C(=O)O)C(=O)O)C(=O)N[C@@H](Cc1ccccc1)C(=O)N[C@H](C(=O)N[C@@H](CCC(=O)O)C(=O)N[C@@H](Cc1c[nH]c2ccccc12)C(=O)N[C@@H](CC(C)C)C(=O)N[C@@H](CC(C)C)C(=O)N[C@@H](C)C(=O)N[C@@H](CCC(N)=O)C(=O)N[C@@H](CCCNC(=N)N)C(=O)NCC(=O)O)C(C)C [Compound 157] (H-Y[Aib]EGTFISDYSIA[Aib]DKAAQQK([AEEA-AEEA-γGlu-γGlu-C18 diacid])FVEWLLAQRG-OH)	≥ 15	≥ 30
CC[C@H](C)[C@H](NC(=O)[C@H](CO)NC(=O)[C@H](Cc1ccc(O)cc1)NC(=O)[C@H](CC(=O)O)NC(=O)[C@H](CO)NC(=O)[C@@H](NC(=O)[C@H](Cc1ccccc1)NC(=O)[C@@H](NC(=O)CNC(=O)[C@H](CCC(=O)O)NC(=O)C(C)(C)NC(=O)[C@@H](N)Cc1ccc(O)cc1)[C@@H](C)O)[C@@H](C)CC)C(=O)N[C@@H](C)C(=O)NC(C)(C)C(=O)N[C@@H](CC(=O)O)C(=O)N[C@@H](CCCCN)C(=O)N[C@@H](C)C(=O)N[C@@H](C)C(=O)N[C@@H](CCC(N)=O)C(=O)N[C@@H](C)C(=O)N[C@@H](CCCCNC(=O)COCCOCCNC(=O)COCCOCCNC(=O)CC[C@H](NC(=O)CC[C@H](NC(=O)CCCCCCCCCCCCCCCCC(=O)O)C(=O)O)C(=O)O)C(=O)N[C@@H](Cc1ccccc1)C(=O)N[C@H](C(=O)N[C@@H](CCC(=O)O)C(=O)N[C@@H](Cc1c[nH]c2ccccc12)C(=O)N[C@@H](CC(C)C)C(=O)N[C@@H](CC(C)C)C(=O)N[C@@H](C)C(=O)N[C@@H](CCC(N)=O)C(=O)N[C@@H](CCCNC(=N)N)C(=O)NCC(=O)O)C(C)C [Compound 158] (H-Y[Aib]EGTFISDYSIA[Aib]DKAAQAK([AEEA-AEEA-γGlu-γGlu-C18 diacid])FVEWLLAQRG-OH)	≥ 15	≥ 30
